Here are results for ten compounds from patent publication US8324264B1, “Inhibitors of bacterial biofilms and related methods” (Sequoia Sciences, Inc., priority 2011, dated 2012).

The structures appear in SMILES notation. Values after ≈ are worked out from the molar mass of the structure shown. Some results are limits rather than exact numbers.

Series [1] relates to B. cepacia. The experiment in a line: Biofilm growth assay, Burkholderia cepacia. Type of series: cell-based. Conditions: Table 6, n = 10 isolates; M9 salts, 0.7% citrate, 0.4% Noble agar. How it is done: The biofilm growth assay was carried out to measure swarming or biofilm spreading on semi-solid agar media in round plates (for example, 100×15 mm), also referred to as Petri dishes. For E. coli, the plates contained LB medium with 0.6% agar and 0.5% glucose. P. aeruginosa plates were made with M8 agar supplemented with 0.2% glucose, 100 μM CaCl2, 1 mM MgSO4, and 0.5% Casamino acids. The agar plates of this assay consisted of 0.4% to 0.7% agar (Bacto or Noble agar), although other media may also be used as described in the literature and known to those skilled in the art. Test compounds at the desired concentration were added to the cooled, autoclaved media. Portions of the media were then poured into the plates (20 mL/plate), and the plates allowed to dry at room temperature for approximately 3 to 4 hours. Alternatively, however, plates may be dried in a laminar flow hood for approximately fifteen to twenty minutes. Overnight cultures were grown in a 37° C. shaker in LB (E. coli) or TSB (P. aeruginosa). Plates were inoculated by placing 5 μL of the appropriate overnight culture in the centers of the plates. The plates then were incubated overnight at 37° C. The area of the zone of spreading bacteria was then measured and replicates are averaged. Percent inhibition was calculated as 100×(area without compound−area with compound)/(area without compound). […] A > (“greater than” symbol) as used in Table 1 is well understood to those skilled in the art as an indication that the listed concentration was not effective at this concentration.
(§1) Table 6, below, lists the inhibitory concentrations of select compounds and antibiotics in the biofilm growth assay against various gram-negative bacterial biofilms. “N” means the number of isolates of bacteria tested. The biofilm growth assay procedure detailed in Example I, above, was followed. Burkholderia cepacia used media consisting of M9 salts, 100 μM CaCl2, 1 mM MgSO4, and 0.7% citrate in 0.4% Noble agar. Salmonella spp. used media consisting of Nutrient Broth with 0.5% glucose in 0.5% Noble agar.

The subject of series [2] is P. aeruginosa biofilms. The experiment in a line: Biofilm growth assay (spreading biofilm on semi-solid agar), P. aeruginosa. In kind it is cell-based. More on the design: P. aeruginosa (n = 10) inhibitory concentration in the biofilm growth assay: unit: ug/mL. Conditions: for P. aeruginosa (n = 10) inhibitory concentration in the biofilm growth assay: Table 6, n = 10 isolates; for IC85: Pseudomonas aeruginosa, biofilm growth assay, overnight 37° C., vs negative controls, Tables 1-5, read-out: P. aeruginosa: concentration that reduces the area of the spreading biofilm by greater than or equal to 85%. Summed up:
(§2)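 Values are compound concentrations (μg/ml) that cut the spreading-biofilm zone area by ≥85% relative to negative controls after overnight 37 °C growth from 5 μL central inoculum. E. coli plates: LB, 0.6% agar, 0.5% glucose; P. aeruginosa plates: M8 agar plus 0.2% glucose, 100 μM CaCl2, 1 mM MgSO4, 0.5% Casamino acids.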

Series [3] concerns Salmonella spp. The experiment in a line: Biofilm growth assay, Salmonella spp. In kind it is cell-based. Conditions: Table 6, n = 6 isolates; Nutrient Broth, 0.5% glucose, 0.5% Noble agar. How it is done:
The biofilm growth assay was carried out to measure swarming or biofilm spreading on semi-solid agar media in round plates (for example, 100×15 mm), also referred to as Petri dishes. For E. coli, the plates contained LB medium with 0.6% agar and 0.5% glucose. P. aeruginosa plates were made with M8 agar supplemented with 0.2% glucose, 100 μM CaCl2, 1 mM MgSO4, and 0.5% Casamino acids. The agar plates of this assay consisted of 0.4% to 0.7% agar (Bacto or Noble agar), although other media may also be used as described in the literature and known to those skilled in the art. Test compounds at the desired concentration were added to the cooled, autoclaved media. Portions of the media were then poured into the plates (20 mL/plate), and the plates allowed to dry at room temperature for approximately 3 to 4 hours. Alternatively, however, plates may be dried in a laminar flow hood for approximately fifteen to twenty minutes. Overnight cultures were grown in a 37° C. shaker in LB (E. coli) or TSB (P. aeruginosa). Plates were inoculated by placing 5 μL of the appropriate overnight culture in the centers of the plates. The plates then were incubated overnight at 37° C. The area of the zone of spreading bacteria was then measured and replicates are averaged. Percent inhibition was calculated as 100×(area without compound−area with compound)/(area without compound). An active compound was considered that which reduces the area of the spreading biofilm compared to negative controls by greater than or equal to 85%. The values shown in Table 1 are the concentrations of compounds (μg/ml) tested in the biofilm growth assay that reduce the area of the spreading biofilm compared to negative controls by greater than or equal to 85% unless noted differently in Table 1. A > (“greater than” symbol) as used in Table 1 is well understood to those skilled in the art as an indication that the listed concentration was not effective at this concentration.
as §1

Series [4] concerns E. coli biofilms. Put plainly: Biofilm growth assay (spreading biofilm on semi-solid agar), E. coli. Type of series: cell-based. The following applies: for E. coli (n = 10) inhibitory concentration in the biofilm growth assay: Table 6, n = 10 isolates; for IC85: Escherichia coli, biofilm growth assay, overnight 37° C., vs negative controls, Tables 1-5, read-out: E. coli: concentration that reduces the area of the spreading biofilm by greater than or equal to 85%. Also on record: E. coli (n = 10) inhibitory concentration in the biofilm growth assay: unit: ug/mL. Summed up:
as §2

The nature of series [5]: Evaluation of salts. Type of series: physicochemical. The method, then:
Evaluation of Compound 62 (Table 4) salt formation was performed. […] As stated herein, the invention also includes compounds and their salts. Evaluation of Compound 64 (Table 4) salt formation was performed. HCl (mono and bis), p-TSA (bis), BSA (bis), MSA (bis), H2SO4 (mono), and H3PO4 (mono) provided salts with crystallinity. […] As stated herein, the invention also includes compounds and their salts.

For `CC[C@H]1OC(=O)[C@H](C)[C@@H](O[C@H]2C[C@@](C)(OC)[C@@H](O)[C@H](C)O2)[C@H](C)[C@@H](O[C@@H]2O[C@H](C)C[C@H](N(C)C)[C@H]2O)[C@](C)(O)C[C@@H](C)CN(C)[C@H](C)[C@@H](O)[C@]1(C)O` [Azithromycin, azithromycin], the “B. cepacia (n = 10) inhibitory concentration in the biofilm growth assay” value in series [1] is over 16. The “P. aeruginosa (n = 10) inhibitory concentration in the biofilm growth assay” value in series [2] was over 16. Moreover, in series [3], the “Salmonella spp. (n = 6) inhibitory concentration in the biofilm growth assay” value was over 16.

With `CC(C)(O/N=C(\C(=O)N[C@@H]1C(=O)N2C(C(=O)[O-])=C(C[n+]3ccccc3)CS[C@H]12)c1csc(N)n1)C(=O)O` [Ceftazidime, ceftazidime, reference compound], the “E. coli (n = 10) inhibitory concentration in the biofilm growth assay” value in series [4] was determined as 0.25. In series [1], the “B. cepacia (n = 10) inhibitory concentration in the biofilm growth assay” value is given as over 8. Moreover, the “P. aeruginosa (n = 10) inhibitory concentration in the biofilm growth assay” value in series [2] is recorded as 4. Besides, in series [3], the “Salmonella spp. (n = 6) inhibitory concentration in the biofilm growth assay” value is reported as 0.5.

As for `CC1(C)CC[C@]2(C(N)=O)CC[C@]3(C)C(=CCC4[C@@]5(C)Cc6c(n[nH]c6N)C(C)(C)[C@@H]5CC[C@]43C)[C@@H]2C1` (stereo partly drawn) [Compound 62, (4aS,6aS,6bR,13aR)-12-Amino-2,2,6a,6b,9,9,13a-heptamethyl-2,3,4,4a,5,6,6a,6b,7,8,8a,9,11,13,13a,13b,14,15b-octadecahydro-1H-chryseno[1,2-f]indazole-4-a-carboxamide], the IC85 in series [4] and in series [2] was 1 mg/L (≈ 2.03 µM) each time. Further, in series [5] (p-toluenesulfonic acid (mono) and H3PO4 (bis) salts), the “physical properties of salts compared to freebase” value is “most desirable physical properties”.

For `CN(C)C[C@]12CCC(C)(C)C[C@H]1C1=CC[C@@H]3[C@@]4(C)Cc5c(n[nH]c5N)C(C)(C)[C@@H]4CC[C@@]3(C)[C@]1(C)CC2` [Compound 64], the IC85 in series [4] stood at 1 mg/L (≈ 1.97 µM); in series [2], 0.5 mg/L (≈ 0.987 µM). Also, the “aqueous solubility of salts compared to freebase” value in series [5] (Bis-MSA and mono-H3PO4 salts) is “increased aqueous solubility”.

As for `CC1(C)CC[C@]2(C(=O)O)CC[C@]3(C)C(=C(c4c[nH]c5ccccc45)CC4[C@@]5(C)Cc6c(n[nH]c6N)C(C)(C)[C@@H]5CC[C@]43C)[C@@H]2C1` (stereo partly drawn) [Example 8, (4aS,6aS,6bR,8aR,13aR,15bS)-12-Amino-15-(1H-indol-3-yl)-2,2,6a,6b,9,9,13a-heptamethyl-2,3,4,4a,5,6,6a,6b,7,8,8a,9,11,13,13a,13b,14,15b-octadecahydro-1H-chryseno[1,2-f]indazole-4-a-carboxylic acid], the melting point is > 300 °C (dec.). Also, in series [4], the IC85 came to 1 mg/L (≈ 1.64 µM). The IC85 in series [2] is 0.25 mg/L (≈ 0.411 µM).

For the compound `CC1(C)CC[C@]2(C(=O)O)CC[C@]3(C)C(=C(c4c[nH]c(CN5CCOCC5)c4)CC4[C@@]5(C)Cc6c(n[nH]c6N)C(C)(C)[C@@H]5CC[C@]43C)[C@@H]2C1` (stereo partly drawn) [Example 9, (4aS,6aS,6bR,8aR,13aR,15bS)-12-Amino-2,2,6a,6b,9,9,13a-heptamethyl-15-(5-(morpholinomethyl)-1H-pyrrol-3-yl)-2,3,4,4a,5,6,6a,6b,7,8,8a,9,11,13,13a,13b,14,15b-octadecahydro-1H-chryseno[1,2-f]indazole-4-a-carboxylic acid], the melting point was 270 to 280 °C (dec.). Moreover, the IC85 in series [4] is 1 mg/L (≈ 1.52 µM). In series [2], the IC85 is 0.5 mg/L (≈ 0.76 µM).

For `CC1(C)CC[C@]2(C(=O)O)CC[C@]3(C)C(=C(c4cccnc4)CC4[C@@]5(C)Cc6c(n[nH]c6N)C(C)(C)[C@@H]5CC[C@]43C)[C@@H]2C1` (stereo partly drawn) [Example 12, (4aS,6aS,6bR,8aR,13aR,15bS)-12-Amino-2,2,6a,6b,9,9,13a-heptamethyl-15-(pyridin-3-yl)-2,3,4,4a,5,6,6a,6b,7,8,8a,9,11,13,13a,13b,14,15b-octadecahydro-1H-chryseno[1,2-f]indazole-4-a-carboxylic acid], the melting point is over 300 °C. In series [4], the IC85 turned out to be 1 mg/L (≈ 1.75 µM). Besides, the IC85 in series [2] turned out to be 0.5 mg/L (≈ 0.876 µM).

Turning to `C=CC1=C2[C@@H]3CC(C)(C)CC[C@]3(C(=O)O)CC[C@@]2(C)[C@]2(C)CC[C@H]3C(C)(C)c4n[nH]c(N)c4C[C@]3(C)C2C1` (stereo partly drawn) [Example 13, (4aS,6aS,6bR,8aR,13aR,15bS)-12-Amino-2,2,6a,6b,9,9,13a-heptamethyl-15-vinyl-2,3,4,4a,5,6,6a,6b,7,8,8a,9,11,13,13a,13b,14,15b-octadecahydro-1H-chryseno[1,2-f]indazole-4-a-carboxylic acid], the melting point is over 300 °C. Besides, in series [4], the IC85 turned out to be 1 mg/L (≈ 1.92 µM). Also, the IC85 in series [2] was 0.5 mg/L (≈ 0.962 µM).

Consider `CN(C)c1cc(C2=C3[C@@H]4CC(C)(C)CC[C@]4(C(=O)O)CC[C@@]3(C)[C@]3(C)CC[C@H]4C(C)(C)c5n[nH]c(N)c5C[C@]4(C)C3C2)ccn1` (stereo partly drawn) [Example 22, (4aS,6aS,6bR,8aR,13aR,15bS)-12-Amino-15-(2-(dimethylamino)pyridin-4-yl)-2,2,6a,6b,9,9,13a-heptamethyl-2,3,4,4a,5,6,6a,6b,7,8,8a,9,11,13,13a,13b,14,15b-octadecahydro-1H-chryseno[1,2-f]indazole-4-a-carboxylic acid], for which the melting point is over 300 °C. In addition, the IC85 in series [4] was over 2 mg/L. Moreover, the IC85 in series [2] came out at 1 mg/L (≈ 1.63 µM).

On to `NC[C@H]1O[C@H](O[C@H]2[C@H](O)[C@@H](O[C@H]3O[C@H](CO)[C@@H](O)[C@H](N)[C@H]3O)[C@H](N)C[C@@H]2N)[C@H](N)C[C@@H]1O` [Tobramycin, tobramcyin, reference compound], for which the “E. coli (n = 10) inhibitory concentration in the biofilm growth assay” value in series [4] came out at 16. The “B. cepacia (n = 10) inhibitory concentration in the biofilm growth assay” value in series [1] is reported as over 64. For the same compound, the “P. aeruginosa (n = 10) inhibitory concentration in the biofilm growth assay” value in series [2] came to 4. In series [3], the “Salmonella spp. (n = 6) inhibitory concentration in the biofilm growth assay” value is 8.
